Experimental data taken from patent publication US20240156790A1, “COMPOUNDS, COMPOSITIONS, AND METHODS FOR MODULATING FERROPTOSIS AND TREATING EXCITOTOXIC DISORDERS” (THE TRUSTEES OF COLUMBIA UNIVERSITY IN THE CITY OF NEW YORK, priority 2018, published 2024).
Entries after “also recorded” stand apart in the source; their conditions may differ. Values belong to the molecule of their own block, whether it stands above or below them.

Legend:
[1] = Microsomal stability, rat (Table 1); assay type: in vitro ADME; conditions: Rat: Sprague Dawley; for half-life: liver microsomes, read-out: Microsomal Stability t1/2 (converted)
[2] = Microsomal stability, dog (Table 1); assay type: in vitro ADME; conditions: liver microsomes; Dog: Beagle; read-out: Microsomal Stability t1/2
Method: (§1) Each compound (1 μM) is incubated with mouse plasma, for 4 hours at 37° C., with shaking at 100 rpm. The concentration of compound in the buffer and plasma chambers is determined using LC-MS/MS. Metabolism of each compound is predicted using Sites of Metabolism (Schrodinger Suite), which combines intrinsic reactivity analysis (Hammett-Taft) with induced fit docking against 2C9, 2D6 and 3A4. This approach identifies 90% of known metabolism sites and has a false positive rate of 17%. The in vitro metabolic stability of each compound in mouse liver microsomes is determined. Pooled mouse liver microsomes are prepared and stored at −80° C. until needed. Compound stability in liver microsomes is measured at 0, 15, 30, 45 and 60 minutes in duplicate, using LC-MS/MS analysis.

[3] = Microsomal stability, human liver microsomes (Table 1); assay type: in vitro ADME; conditions: Human: Pooled, 50 donors; for half-life: liver microsomes, read-out: Microsomal Stability t1/2 (converted)
[4] = Microsomal stability, mouse liver microsomes (Table 1); assay type: in vitro ADME, Mouse: CD1; conditions: liver microsomes
Method: as §1, with “Compound stability in liver microsomes is measured at 0, 15, 30, 45 and 60 minutes in duplicate, using LC-MS/MS analysis.” left out

[5] = system: HT-1080 cells; experiment: Rescue activity of Fer-1 analogs: inhibition of erastin-, IKE- or RSL3-induced death (Alamar Blue viability); assay type: cell-based; conditions: Homo sapiens
Method: HT-1080 cells are cultured in DMEM containing 10% fetal bovine serum, 1% supplemented non-essential amino acids and 1% pen/strep mixture (Gibco) and maintained in a humidified environment at 37° C. with 5% CO2 in a tissue culture incubator. 1,000 HT-1080 cells are seeded per well in duplicate 384-well plates (Corning) using a BioMek FX liquid handling robot (Beckman Coulter). The next day, the medium is replaced with 36 μL of medium containing 10 μM erastin with 4 μL of medium containing a dilution series (previously prepared) of DMSO, Fer-1 (positive control) or Fer-1 analogs. […] Cells are incubated a further 6 hours and then the Alamar Blue fluorescence intensity recorded using a Victor 3 platereader (PerkinElmer)(ex/em 530/590). All experiments are performed at least twice and the background (no cells)-subtracted Alamar Blue values for each combination are averaged between replicates. The same procedure was repeated by replacing erastin (10 μM) with IKE (3 μM) or RSL3 (0.2 μM).

[6] = system: HT-1080 fibrosarcoma cells; conditions: cited from earlier work
[7] = system: HT-1080 cells; experiment: Cell viability assays in HT-1080 cells, ferroptosis induced by IKE or RSL3 (Example 8); assay type: cell-based; conditions: for IC50: Homo sapiens, HT-1080, 48 h
Method: Cell culture assays were incubated at 37° C. with 5% CO2. HT-1080 cells were grown in DMEM (Corning) supplemented with 10% FBS (Life Technologies), 1% Penicillin-Streptomycin 10,000 U/mL (Gibco), and 1% MEM Non-Essential Amino Acids Solution 100× (Gibco). For cell viability assays, cells were trypsinized, counted, and seeded into 384-well white polypropylene plates at 1,000 cells/well, unless otherwise specified. After allowing cells to adhere overnight, compounds in DMSO stocks were arrayed in a 16-point dilution series prepared in a mother plate, and treated from a daughter plate, [DMSO]=0.28%. After 24 or 48 h, 50% CellTiter-Glo (Promega) 50% cell culture medium was added to each well and incubated at room temperature with shaking for 15 min. Luminescence was measured using a Victor X5 plate reader (PerkinElmer). All cell viability data were normalized to the DMSO vehicle condition. […] All 384w measurements were performed in triplicate
We first evaluated the efficacy of four pyridine analogs, TH-2-9-1, TH-2-31, TH-2-37-1, and TH-2-37-2, in suppressing ferroptosis induced by IKE and RSL3 in HT-1080 cells. […] We sought to determine whether incorporation of pyridine changed stability in mouse liver microsomes.

[8] = system: HT-1080 cells; experiment: Rescue activity of selected Fer-1 analogs, dose-response in HT-1080 cells (cell titer glo); assay type: cell-based
Method: Selected Fer-1 analogs containing a pyridine moiety (FIG. 4) were tested to examine their efficacy and overall potency in inhibiting ferroptosis. For each of these compounds, dose-response curves were generated in HT-1080 cells looking at the effectiveness of the molecules in inhibiting ferroptosis induced by either 3 μM IKE or 0.2 μM RSL3, Fer-1 was used as a positive control. For each dose-response curve, 1,000 cells/well were seeded in a 384 well plate and allowed to adhere overnight prior to treating with compound from a daughter plate. Cells were treated for 48 hours, unless otherwise noted, prior to viability being analyzed using cell titer glo (40 μL per well). All liquid handling was performed using the BioMek. All samples were prepared in triplicate, unless otherwise noted.

[9] = CD1, mouse, Mouse: CD1, read-out: Microsomal Stability t1/2
[10] = HT-1080, ^a 50% viability, HT-1080 cells treated with 10 μM erastin
[11] = HT-1080, ^b 50% viability, HT-1080 treated with 3 μM IKE
[12] = HT-1080, ^c 50% viability, HT-1080 treated with 0.2 μM RSL3

half-life [1]: 0.5 to 1 h
half-life [2]: > 2 h
half-life [3]: > 2 h
half-life [4, 9]: 0.0533 to 0.055 h
SMILES: Nc1cc(-c2ncco2)ccc1NC1CCCCC1 [CFI-4051]
EC50 [5, 10]: 36 nM
EC50 [5, 11]: 13 nM
EC50 [5, 12]: 5 nM

Microsomal Stability t1/2 [3]: > 2 h
SMILES: CCCC(CC)Nc1ccc(C(=O)OC(C)(C)C)cc1Nc1ccccc1 (stereo not shown) [CFI-4081]

half-life [3]: > 2 h
half-life ([4]; CD1 (mouse), mouse, human, in either mouse or human liver microsomes, read-out: T1/2): > 2 h
half-life [4, 9]: > 2 h
SMILES: Cc1noc(-c2ccc(NC34CC5CC(CC(C5)C3)C4)c(NC3CCCCC3)c2)n1 [CFI-4083]

half-life [1]: 0.5 to 1 h
half-life [2]: > 2 h
half-life [3]: > 2 h
half-life [4, 9]: 0.27 to 0.277 h
SMILES: CC(C)(C)OC(=O)c1cc(N)c(NC23CC4CC(CC(C4)C2)C3)cc1Cl [CFI-A3]
EC50 [5, 11]: 26 nM
EC50 [5, 12]: 6 nM

Microsomal Stability t1/2 [1]: ~0.333 h
Microsomal Stability t1/2 [3]: > 2 h
SMILES: C=C(/C=C\CNC12CC3CC(CC(C3)C1)C2)COC(C)(C)C [CFI-A4]
EC50 [5, 11]: 16 nM
EC50 [5, 12]: 1 nM

SMILES: CCOC(=O)c1ccc(NC2CCCCC2)c(NCc2ccccc2)c1 [SRS11-92]
potency, in words [6]: low nanomolar potency

SMILES: CC(C)(C)OC(=O)c1ccc(NC23CC4CC(CC(C4)C2)C3)c(N=Cc2cncnc2)c1 [SRS16-86]
decrease in potency relative to SRS11-92 [6]: > 50 fold
decrease in potency relative to fer-1 [6]: ~4 fold

IC50 ([7]; ^b 2 μM IKE, 48 hours, 1,000 cells/well): 16.9 nM
IC50 ([7]; ^c 0.2 μM RSL3, 48 hours, 1,000 cells/well): 2.7 nM
half-life [4, 9]: 0.128 h
SMILES: COc1cnc(NC2CCCCC2)c(NC2CCCCC2)c1 [TH-2-9-1, N^2,N^3-dicyclohexyl-5-methoxypyridine-2,3-diamine]
potency relative to fer-1 at suppressing ferroptosis, in words [7]: slightly less potent than fer-1 in inhibiting IKE-induced death
EC50 [5, 10]: 0.1 nM
EC50 [5, 11]: 0.21 nM
EC50 [5, 12]: 0.2 nM
death observed with RSL3 ([8]; 0.2 μM RSL3, inhibitor range 10 μM-0 μM): No death was observed
potency compared, in words ([8]; 3 μM IKE, 0.2 μM RSL3, 10 μM erastin): an order of magnitude more potent than Fer-1 for all inducers beyond RSL3; also recorded: the most potent analog for RSL3 alone
rescue against IKE and erastin ([8]; inhibitor 1 μM-0 μM, 3 μM IKE, 10 μM erastin, 48 hours): ~50%
